{
  "source": "PubChem BioAssay (NCI)",
  "assay_in_all_cases": "NCI-60 cell line screen, 48 h",
  "key": {"CCRF-CEM leukemia": {"tested_on": "CCRF-CEM leukemia"}, "HCT-15 colon": {"tested_on": "HCT-15 colon"}, "SK-MEL-2 melanoma": {"tested_on": "SK-MEL-2 melanoma"}, "PC-3 prostate": {"tested_on": "PC-3 prostate"}, "UACC-257 melanoma": {"tested_on": "UACC-257 melanoma"}, "UACC-62 melanoma": {"tested_on": "UACC-62 melanoma"}, "NCI-H226 lung": {"tested_on": "NCI-H226 lung"}, "CAKI-1 renal": {"tested_on": "CAKI-1 renal"}, "NCI-H23 lung": {"tested_on": "NCI-H23 lung"}, "NCI/ADR-RES ovarian": {"tested_on": "NCI/ADR-RES ovarian"}, "SF-539 CNS": {"tested_on": "SF-539 CNS"}, "A498 renal": {"tested_on": "A498 renal"}, "SNB-75 CNS": {"tested_on": "SNB-75 CNS"}, "U251 CNS": {"tested_on": "U251 CNS"}, "IGROV1 ovarian": {"tested_on": "IGROV1 ovarian"}, "RPMI-8226 leukemia": {"tested_on": "RPMI-8226 leukemia"}, "M14 melanoma": {"tested_on": "M14 melanoma"}, "MCF7 breast": {"tested_on": "MCF7 breast"}, "OVCAR-8 ovarian": {"tested_on": "OVCAR-8 ovarian"}, "TK-10 renal": {"tested_on": "TK-10 renal"}, "RXF 393 renal": {"tested_on": "RXF 393 renal"}, "SF-295 CNS": {"tested_on": "SF-295 CNS"}, "OVCAR-3 ovarian": {"tested_on": "OVCAR-3 ovarian"}, "OVCAR-5 ovarian": {"tested_on": "OVCAR-5 ovarian"}, "SW-620 colon": {"tested_on": "SW-620 colon"}, "HT29 colon": {"tested_on": "HT29 colon"}, "MALME-3M melanoma": {"tested_on": "MALME-3M melanoma"}, "SR leukemia": {"tested_on": "SR leukemia"}, "ACHN renal": {"tested_on": "ACHN renal"}},
  "note": "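Protocol summary: plate cells (96-well), add compound at 5 concentrations, incubate 48 h, interpolate endpoints linearly. GI50 marks 50% less growth. TGI denotes the concentration required for complete inhibition of growth.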",
  "data": [
    {"smiles": "O=C(Nc1ccccc1O)c1ccc(NS(=O)(=O)c2cccc3cccnc23)cc1", "values": [
      {"measurement": "GI50", "setting": "CCRF-CEM leukemia", "value": 1050, "unit": "nM"},
      {"measurement": "TGI", "setting": "CCRF-CEM leukemia", "value": "> 25000", "unit": "nM"},
      {"measurement": "GI50", "setting": "HCT-15 colon", "value": 2080, "unit": "nM"},
      {"measurement": "TGI", "setting": "HCT-15 colon", "value": 7710, "unit": "nM"},
      {"measurement": "GI50", "setting": "SK-MEL-2 melanoma", "value": 806, "unit": "nM"},
      {"measurement": "TGI", "setting": "SK-MEL-2 melanoma", "value": 4350, "unit": "nM"},
      {"measurement": "GI50", "setting": "PC-3 prostate", "value": 1460, "unit": "nM"},
      {"measurement": "TGI", "setting": "PC-3 prostate", "value": 8250, "unit": "nM"},
      {"measurement": "GI50", "setting": "UACC-257 melanoma", "value": 571, "unit": "nM"},
      {"measurement": "TGI", "setting": "UACC-257 melanoma", "value": 5250, "unit": "nM"},
      {"measurement": "GI50", "setting": "UACC-62 melanoma", "value": 539, "unit": "nM"},
      {"measurement": "TGI", "setting": "UACC-62 melanoma", "value": 3490, "unit": "nM"},
      {"measurement": "GI50", "setting": "NCI-H226 lung", "value": 2360, "unit": "nM"},
      {"measurement": "TGI", "setting": "NCI-H226 lung", "value": 7270, "unit": "nM"},
      {"measurement": "GI50", "setting": "CAKI-1 renal", "value": 998, "unit": "nM"},
      {"measurement": "TGI", "setting": "CAKI-1 renal", "value": 4800, "unit": "nM"},
      {"measurement": "GI50", "setting": "NCI-H23 lung", "value": 2020, "unit": "nM"},
      {"measurement": "TGI", "setting": "NCI-H23 lung", "value": 13700, "unit": "nM"},
      {"measurement": "GI50", "setting": "NCI/ADR-RES ovarian", "value": 788, "unit": "nM"},
      {"measurement": "TGI", "setting": "NCI/ADR-RES ovarian", "value": 5960, "unit": "nM"},
      {"measurement": "GI50", "setting": "SF-539 CNS", "value": 760, "unit": "nM"},
      {"measurement": "TGI", "setting": "SF-539 CNS", "value": 10100, "unit": "nM"},
      {"measurement": "GI50", "setting": "A498 renal", "value": 208, "unit": "nM"},
      {"measurement": "TGI", "setting": "A498 renal", "value": 1620, "unit": "nM"},
      {"measurement": "GI50", "setting": "SNB-75 CNS", "value": 511, "unit": "nM"},
      {"measurement": "TGI", "setting": "SNB-75 CNS", "value": 8030, "unit": "nM"},
      {"measurement": "GI50", "setting": "U251 CNS", "value": 1300, "unit": "nM"},
      {"measurement": "TGI", "setting": "U251 CNS", "value": 5400, "unit": "nM"},
      {"measurement": "GI50", "setting": "IGROV1 ovarian", "value": 3060, "unit": "nM"},
      {"measurement": "TGI", "setting": "IGROV1 ovarian", "value": 9950, "unit": "nM"},
      {"measurement": "GI50", "setting": "RPMI-8226 leukemia", "value": 464, "unit": "nM"},
      {"measurement": "TGI", "setting": "RPMI-8226 leukemia", "value": "> 9660", "unit": "nM"},
      {"measurement": "GI50", "setting": "M14 melanoma", "value": 1180, "unit": "nM"},
      {"measurement": "TGI", "setting": "M14 melanoma", "value": 5610, "unit": "nM"},
      {"measurement": "GI50", "setting": "MCF7 breast", "value": 941, "unit": "nM"},
      {"measurement": "TGI", "setting": "MCF7 breast", "value": "> 18200", "unit": "nM"},
      {"measurement": "GI50", "setting": "OVCAR-8 ovarian", "value": 665, "unit": "nM"},
      {"measurement": "TGI", "setting": "OVCAR-8 ovarian", "value": 7250, "unit": "nM"},
      {"measurement": "GI50", "setting": "TK-10 renal", "value": 704, "unit": "nM"},
      {"measurement": "TGI", "setting": "TK-10 renal", "value": 3450, "unit": "nM"},
      {"measurement": "GI50", "setting": "RXF 393 renal", "value": 1720, "unit": "nM"},
      {"measurement": "TGI", "setting": "RXF 393 renal", "value": 5810, "unit": "nM"},
      {"measurement": "GI50", "setting": "SF-295 CNS", "value": 1090, "unit": "nM"},
      {"measurement": "TGI", "setting": "SF-295 CNS", "value": 4770, "unit": "nM"},
      {"measurement": "GI50", "setting": "OVCAR-3 ovarian", "value": 1420, "unit": "nM"},
      {"measurement": "TGI", "setting": "OVCAR-3 ovarian", "value": 5610, "unit": "nM"},
      {"measurement": "GI50", "setting": "OVCAR-5 ovarian", "value": 744, "unit": "nM"},
      {"measurement": "TGI", "setting": "OVCAR-5 ovarian", "value": "> 12700", "unit": "nM"},
      {"measurement": "GI50", "setting": "SW-620 colon", "value": 810, "unit": "nM"},
      {"measurement": "TGI", "setting": "SW-620 colon", "value": 4880, "unit": "nM"},
      {"measurement": "GI50", "setting": "HT29 colon", "value": 1180, "unit": "nM"},
      {"measurement": "TGI", "setting": "HT29 colon", "value": "> 16000", "unit": "nM"},
      {"measurement": "GI50", "setting": "MALME-3M melanoma", "value": 827, "unit": "nM"},
      {"measurement": "TGI", "setting": "MALME-3M melanoma", "value": "> 25000", "unit": "nM"},
      {"measurement": "GI50", "setting": "SR leukemia", "value": 1310, "unit": "nM"},
      {"measurement": "TGI", "setting": "SR leukemia", "value": 13900, "unit": "nM"},
      {"measurement": "GI50", "setting": "ACHN renal", "value": 1210, "unit": "nM"}
    ]}
  ]
}
